Values after ≈ are worked out from the molar mass of the structure shown.

The test system of series [1] is Bacillus subtilis IFO 3134. Nature of the series: Antibacterial activity (MIC), standard method of Japan Society of Chemotherapy. To be noted: IFO3134; Bacillus subtilis IFO 3134; read-out: minimum inhibitory concentration (MIC). The class given is cell-based. From the text: (§1) The results obtained from the typical compounds are shown in Table 2 as the minimum inhibitory concentration (MIC, μg/ml). […] In Table 2, Test compound No. corresponds to derivative No. in Table 1.

Series [2] relates to Escherichia coli IFO 12734. The series is described as above. The class given is cell-based. Conditions: IFO12734, read-out: minimum inhibitory concentration (MIC).
Source text: as §1

The test system of series [3] is Klebsiella pneumoniae IFO 3512. The description is as above. The class given is cell-based. To be noted: IFO3512; Klebsiella pneumoniae IFO 3512; read-out: minimum inhibitory concentration (MIC).
Source text: as §1

In series [4] the test system is Micrococcus luteus IFO 12708. Described as above. Conditions: IFO12708; Micrococcus luteus IFO 12708; read-out: minimum inhibitory concentration (MIC). The series is classed as cell-based.
Source text: as §1

Series [5] relates to Mycobacterium smegmatis ATCC 607. Described as above. The class given is cell-based. To be noted: Mycolicibacterium smegmatis, ATCC607; Mycobacterium smegmatis ATCC 607; read-out: minimum inhibitory concentration (MIC).
Source text: as §1

Series [6] has as its system Staphylococcus aureus IFO 12732. The description is as above. Conditions: IFO12732; Staphylococcus aureus IFO 12732; read-out: minimum inhibitory concentration (MIC). The class given is cell-based.
Source text: as §1

The nature of series [7]: Concentration in serum after oral administration to rats. To be noted: rat, 20 mg/kg.

`CCN(C)c1ccc2nc3c4c5c6c(C)c(O)c4c(=O)c(c-3oc2c1)NC(=O)C(C)=CC=CC(C)C(O)C(C)C(O)C(C)C(OC(C)=O)C(C)C(OC)C=COC(C)(O6)C5=O` (stereo not drawn) [compound 2]: the MIC in series [1] was 0.04 µg/mL (≈ 0.0475 µM); in series [2], 1.25 µg/mL (≈ 1.48 µM); in series [3] it was 2.5 µg/mL (≈ 2.97 µM); in series [4] it was not above 0.02 µg/mL; in series [5], 1.25 µg/mL (≈ 1.48 µM); in series [6], not above 0.02 µg/mL. This compound also registered a concentration at 1 h in series [7] of 3000 ng/mL. For the same compound, the concentration at 3 h in series [7] stood at 5400 ng/mL. The compound further yielded a concentration at 5 h in series [7] of 3000 ng/mL.

Consider `CCN(CC)c1ccc2nc3c4c5c6c(C)c(O)c4c(=O)c(c-3oc2c1)NC(=O)C(C)=CC=CC(C)C(O)C(C)C(O)C(C)C(OC(C)=O)C(C)C(OC)C=COC(C)(O6)C5=O` (stereo not drawn) [compound 3], for which the MIC in series [1] is not above 0.02 µg/mL; in series [2] it was 2.5 µg/mL (≈ 2.92 µM); in series [3], 5 µg/mL (≈ 5.84 µM); in series [4] it was not above 0.02 µg/mL; in series [5], 1.25 µg/mL (≈ 1.46 µM); in series [6] it was not above 0.02 µg/mL. Moreover, the concentration at 1 h in series [7] was 1800 ng/mL. In series [7], this compound came in with a concentration at 3 h of 3300 ng/mL. Further, the concentration at 5 h in series [7] was found to be 1300 ng/mL.

Consider `CCCN(CCC)c1ccc2nc3c4c5c6c(C)c(O)c4c(=O)c(c-3oc2c1)NC(=O)C(C)=CC=CC(C)C(O)C(C)C(O)C(C)C(OC(C)=O)C(C)C(OC)C=COC(C)(O6)C5=O` (stereo not drawn) [compound 4], for which the MIC in series [1] was 0.08 µg/mL (≈ 0.0905 µM); in series [2], more than 10 µg/mL; in series [3] it was more than 10 µg/mL; in series [4], not above 0.02 µg/mL; in series [5], 1.25 µg/mL (≈ 1.41 µM); in series [6], not above 0.02 µg/mL. Further, in series [7], the concentration at 1 h was 2000 ng/mL. For the same compound, the concentration at 3 h in series [7] is 8500 ng/mL. This compound displayed a concentration at 5 h in series [7] of 2100 ng/mL.

As for `CCOCCN(CCOCC)c1ccc2nc3c4c5c6c(C)c(O)c4c(=O)c(c-3oc2c1)NC(=O)C(C)=CC=CC(C)C(O)C(C)C(O)C(C)C(OC(C)=O)C(C)C(OC)C=COC(C)(O6)C5=O` (stereo not drawn) [compound 9], the MIC in series [1] is not above 0.02 µg/mL; in series [2] it was 5 µg/mL (≈ 5.3 µM); in series [3] it was 10 µg/mL (≈ 10.6 µM); in series [4] it was not above 0.02 µg/mL; in series [5], 1.25 µg/mL (≈ 1.32 µM); in series [6], not above 0.02 µg/mL. In addition, the concentration at 1 h in series [7] was 2100 ng/mL. This compound also displayed a concentration at 3 h in series [7] of 5400 ng/mL. In addition, in series [7], the concentration at 5 h was 1800 ng/mL.

Regarding `COC(CN(C)c1ccc2nc3c4c5c6c(C)c(O)c4c(=O)c(c-3oc2c1)NC(=O)C(C)=CC=CC(C)C(O)C(C)C(O)C(C)C(OC(C)=O)C(C)C(OC)C=COC(C)(O6)C5=O)OC` (stereo not drawn) [compound 11], the MIC was not above 0.02 µg/mL in series [1]; more than 10 µg/mL in series [2]; 5 µg/mL (≈ 5.54 µM) in series [3]; not above 0.02 µg/mL in series [4]; 2.5 µg/mL (≈ 2.77 µM) in series [5]; not above 0.02 µg/mL in series [6]. This compound yielded a concentration at 1 h in series [7] of 2900 ng/mL. Besides, in series [7], the concentration at 3 h was determined as 3400 ng/mL. Further, in series [7], the concentration at 5 h is 1000 ng/mL.

Take `COC1C=COC2(C)Oc3c(C)c(O)c4c(=O)c(c5oc6cc(N7CCC7)ccc6nc-5c4c3C2=O)NC(=O)C(C)=CC=CC(C)C(O)C(C)C(O)C(C)C(OC(C)=O)C1C` (stereo not drawn) [compound 17]: the MIC is not above 0.02 µg/mL in series [1]; 2.5 µg/mL (≈ 2.98 µM) in series [2]; 2.5 µg/mL (≈ 2.98 µM) in series [3]; not above 0.02 µg/mL in series [4]; 0.63 µg/mL (≈ 0.75 µM) in series [5]; not above 0.02 µg/mL in series [6]. In series [7], the concentration at 1 h amounted to 4100 ng/mL. The same compound yielded a concentration at 3 h in series [7] of 3700 ng/mL. The concentration at 5 h in series [7] was 2500 ng/mL.

Regarding `COC1C=COC2(C)Oc3c(C)c(O)c4c(=O)c(c5oc6cc(N7CCCC7)ccc6nc-5c4c3C2=O)NC(=O)C(C)=CC=CC(C)C(O)C(C)C(O)C(C)C(OC(C)=O)C1C` (stereo not drawn) [compound 18], the MIC is not above 0.02 µg/mL in series [1]; 2.5 µg/mL (≈ 2.93 µM) in series [2]; 5 µg/mL (≈ 5.86 µM) in series [3]; not above 0.02 µg/mL in series [4]; 1.25 µg/mL (≈ 1.46 µM) in series [5]; not above 0.02 µg/mL in series [6]. In addition, in series [7], the concentration at 1 h was 2300 ng/mL. The compound further had a concentration at 3 h in series [7] of 4900 ng/mL. Further, the concentration at 5 h in series [7] is 3400 ng/mL.

Take `COC1C=COC2(C)Oc3c(C)c(O)c4c(=O)c(c5oc6cc(N7CCCCC7)ccc6nc-5c4c3C2=O)NC(=O)C(C)=CC=CC(C)C(O)C(C)C(O)C(C)C(OC(C)=O)C1C` (stereo not drawn) [compound 19]: the MIC in series [1] was not above 0.02 µg/mL; in series [2] it was 2.5 µg/mL (≈ 2.88 µM); in series [3] it was 10 µg/mL (≈ 11.5 µM); in series [4], not above 0.02 µg/mL; in series [5], 1.25 µg/mL (≈ 1.44 µM); in series [6], not above 0.02 µg/mL. Besides, in series [7], the concentration at 1 h is 4900 ng/mL. In series [7], the concentration at 3 h was 12400 ng/mL. This compound had a concentration at 5 h in series [7] of 16600 ng/mL.

Turning to `COC1C=COC2(C)Oc3c(C)c(O)c4c(=O)c(c5oc6cc(N7CCCCCC7)ccc6nc-5c4c3C2=O)NC(=O)C(C)=CC=CC(C)C(O)C(C)C(O)C(C)C(OC(C)=O)C1C` (stereo not drawn) [compound 20], the MIC is 0.04 µg/mL (≈ 0.0454 µM) in series [1]; 1.25 µg/mL (≈ 1.42 µM) in series [2]; more than 10 µg/mL in series [3]; not above 0.02 µg/mL in series [4]; 1.25 µg/mL (≈ 1.42 µM) in series [5]; 0.08 µg/mL (≈ 0.0907 µM) in series [6]. Also, the concentration at 1 h in series [7] was found to be 3200 ng/mL. Moreover, the concentration at 3 h in series [7] is 5700 ng/mL. In addition, in series [7], the concentration at 5 h came to 4900 ng/mL.

As for `COC1C=COC2(C)Oc3c(C)c(O)c4c(=O)c(c5oc6cc(N7CCCC(C)C7)ccc6nc-5c4c3C2=O)NC(=O)C(C)=CC=CC(C)C(O)C(C)C(O)C(C)C(OC(C)=O)C1C` (stereo not drawn) [compound 23], the MIC was not above 0.02 µg/mL in series [1]; more than 10 µg/mL in series [2]; more than 10 µg/mL in series [3]; not above 0.02 µg/mL in series [4]; 1.25 µg/mL (≈ 1.42 µM) in series [5]; not above 0.02 µg/mL in series [6]. In series [7], the concentration at 1 h is 2100 ng/mL. This compound also had a concentration at 3 h in series [7] of 6100 ng/mL. In series [7], this compound had a concentration at 5 h of 5200 ng/mL.

`COC1C=COC2(C)Oc3c(C)c(O)c4c(=O)c(c5oc6cc(N7CCCC(C)(C)C7)ccc6nc-5c4c3C2=O)NC(=O)C(C)=CC=CC(C)C(O)C(C)C(O)C(C)C(OC(C)=O)C1C` (stereo not drawn) [compound 27]: the MIC is not above 0.02 µg/mL in series [1]; more than 10 µg/mL in series [2]; more than 10 µg/mL in series [3]; not above 0.02 µg/mL in series [4]; 1.25 µg/mL (≈ 1.4 µM) in series [5]; not above 0.02 µg/mL in series [6]. The concentration at 1 h in series [7] is 1800 ng/mL. The compound further returned a concentration at 3 h in series [7] of 6400 ng/mL. In series [7], this compound returned a concentration at 5 h of 1700 ng/mL.

As for `COC1C=COC2(C)Oc3c(C)c(O)c4c(=O)c(c5oc6cc(N7CCCC7)cc(O)c6nc-5c4c3C2=O)NC(=O)C(C)=CC=CC(C)C(O)C(C)C(O)C(C)C(OC(C)=O)C1C` (stereo not drawn) [compound 46], the MIC in series [1] was not above 0.02 µg/mL; in series [2], more than 10 µg/mL; in series [3], more than 10 µg/mL; in series [4] it was not above 0.02 µg/mL; in series [5], 1.25 µg/mL (≈ 1.44 µM); in series [6] it was not above 0.02 µg/mL.

`COC1C=COC2(C)Oc3c(C)c(O)c4c(=O)c(c5oc6cc(N7CCCC7)ccc6nc-5c4c3C2=O)NC(=O)C(C)=CC=CC(C)C(O)C(C)C(O)C(C)C(O)C1C` (stereo not drawn) [compound 49]: the MIC is not above 0.02 µg/mL in series [1]; 1.25 µg/mL (≈ 1.54 µM) in series [2]; 5 µg/mL (≈ 6.16 µM) in series [3]; not above 0.02 µg/mL in series [4]; 1.25 µg/mL (≈ 1.54 µM) in series [5]; not above 0.02 µg/mL in series [6]. Besides, the concentration at 1 h in series [7] came out at 2700 ng/mL. Besides, the concentration at 3 h in series [7] worked out at 3500 ng/mL. In series [7], this compound gave a concentration at 5 h of 2800 ng/mL.

The values are drawn from patent publication US4690919A, “Benzoxazinorifamycin derivative, process for preparing the same and antibacterial agent containing the same” (Kanegafuchi Kagaku Kogyo Kabushiki Kaisha, priority 1985, dated 1987).
